Source: ChEMBL document CHEMBL4813920, “Metronidazole-conjugates: A comprehensive review of recent developments towards synthesis and medicinal perspective” (Eur J Med Chem, 2021)
In brackets after ≈: the same amount, converted by molar mass.

Tests used:
MCF7 [1] = assay: cells; settings: Homo sapiens, MCF7, 48 h
HeLa [2] = assay: cells; settings: Homo sapiens, 48 h
A549 [3] = assay: cells; settings: Homo sapiens, A549, 48 h
HepG2 [4] = assay: cells; settings: Homo sapiens, HepG2, 48 h
Entamoeba histolytica [5] = assay: Antiamoebic activity against Entamoeba histolytica HM-1:IMSS trophozoites measured after 72 hrs by microdilution method; assay type: functional, organism-based
Escherichia coli [6] = assay: Antibacterial activity against Escherichia coli ATCC 35218 by MH media dilution method; assay type: functional
[7] = Inhibition of Staphylococcus aureus TyrRS using L-tyrosine and tRNA as substrate preincubated for 10 mins followed by substrate addition by liquid scintillation counting method
Bacillus spizizenii = assay: Antibacterial activity against Bacillus subtilis ATCC 6633 by MH media dilution method; assay type: functional
Pseudomonas aeruginosa [8] = assay: Antibacterial activity against Pseudomonas aeruginosa ATCC 13525 by MH media dilution method; assay type: functional
Staphylococcus aureus = assay: Antibacterial activity against Staphylococcus aureus ATCC 6538 by MH media dilution method; assay type: functional
A549 [9] = assay: Antiproliferative activity against human A549 cells incubated for 24 to 48 hrs by CCK8 assay; assay type: functional, cell-based
HepG2 [10] = assay: Antiproliferative activity against human HepG2 cells incubated for 24 to 48 hrs by CCK8 assay; assay type: functional, cell-based
U-251 = assay: Antiproliferative activity against human U-251 cells incubated for 24 to 48 hrs by CCK8 assay; assay type: functional, cell-based
[11] = target: Telomerase reverse transcriptase (Homo sapiens, UniProt O14746); assay: Inhibition of telomerase in human SGC-7901 cell extract by TRAP assay
HeLa [12] = assay: Antiproliferative activity against human Hela cells incubated for 24 to 48 hrs by CCK8 assay; assay type: functional, cell-based
B16-F10 = assay: Antiproliferative activity against mouse B16-F10 cells incubated for 24 to 48 hrs by MTT assay; assay type: functional, cell-based
Giardia intestinalis = assay: Antigiardial activity against Giardia intestinalis WB incubated for 2 days under anaerobic condition; assay type: functional, organism-based; settings: Giardia duodenalis, 48 h
Entamoeba histolytica [13] = assay: Antiamoebic activity against Entamoeba histolytica HM-1:IMSS trophozoites incubated for 2 days under anaerobic condition; assay type: functional, organism-based; settings: 48 h
HEK293 = assay: Cytotoxicity against HEK293 cells after 24 hrs by MTT assay; assay type: cell-based; settings: Homo sapiens, HEK293, 24 h
MCF7 [14] = assay: cells; settings: Homo sapiens, MCF7, 24 h
MDA-MB-231 = assay: Antiproliferative activity against human MDA-MB-231 cells after 24 hrs by MTT assay; assay type: functional, cell-based; settings: MDA-MB-231, 24 h
Helicobacter pylori [15] = assay: Antibacterial activity against Helicobacter pylori P12 incubated for 48 hrs by MTT assay; assay type: functional, organism-based
Helicobacter pylori [16] = assay: Antibacterial activity against Helicobacter pylori ATCC 26695 incubated for 48 hrs by MTT assay; assay type: functional, organism-based
Clostridium perfringens = assay: Antibacterial activity against Clostridium perfringens ATCC 13124 incubated for 48 hrs under anaerobic condition by MTT assay; assay type: functional
Helicobacter pylori [17] = assay: Antimicrobial activity against Helicobacter pylori SS1 clinical isolate2 for 3 days by agar dilution method; assay type: functional; settings: SS1 clinical isolate2, 72 h, time 3 day
Helicobacter pylori [18] = assay: Antimicrobial activity against Helicobacter pylori ATCC 43504 incubated for 3 days by agar dilution method; assay type: functional; settings: NCTC 11637 = CCUG 17874 = ATCC 43504, 72 h, time 3 day
Helicobacter pylori [19] = assay: Antimicrobial activity against Helicobacter pylori clinical isolate3 for 3 days by agar dilution method; assay type: functional; settings: clinical isolate3, 72 h, time 3 day
Helicobacter pylori [20] = assay: Antimicrobial activity against Helicobacter pylori clinical isolate4 for 3 days by agar dilution method; assay type: functional; settings: clinical isolate4, 72 h, time 3 day
Helicobacter pylori [21] = assay: Antimicrobial activity against Helicobacter pylori clinical isolate1 for 3 days by agar dilution method; assay type: functional; settings: clinical isolate1, 72 h, time 3 day
Helicobacter pylori [22] = assay: Antimicrobial activity against Helicobacter pylori SS1 incubated for 3 days by agar dilution method; assay type: functional; settings: SS1, 72 h, time 3 day
Candida parapsilosis = assay: Antimicrobial activity against Candida parapsilosis ATCC 22019; assay type: functional; settings: Lodderomyces parapsilosis
Candida albicans = assay: Antimicrobial activity against Candida albicans ATCC 90023; assay type: functional
Escherichia coli [23] = assay: Antibacterial activity against Escherichia coli by microbroth dilution method; assay type: functional
Enterococcus faecalis = assay: Antibacterial activity against Enterococcus faecalis by microbroth dilution method; assay type: functional
Acinetobacter baumannii = assay: Antibacterial activity against Acinetobacter baumannii by microbroth dilution method; assay type: functional
Pseudomonas aeruginosa [24] = assay: Antibacterial activity against Pseudomonas aeruginosa ATCC 27853 by microbroth dilution method; assay type: functional

Chain of Telomerase reverse transcriptase (O14746 whole entry): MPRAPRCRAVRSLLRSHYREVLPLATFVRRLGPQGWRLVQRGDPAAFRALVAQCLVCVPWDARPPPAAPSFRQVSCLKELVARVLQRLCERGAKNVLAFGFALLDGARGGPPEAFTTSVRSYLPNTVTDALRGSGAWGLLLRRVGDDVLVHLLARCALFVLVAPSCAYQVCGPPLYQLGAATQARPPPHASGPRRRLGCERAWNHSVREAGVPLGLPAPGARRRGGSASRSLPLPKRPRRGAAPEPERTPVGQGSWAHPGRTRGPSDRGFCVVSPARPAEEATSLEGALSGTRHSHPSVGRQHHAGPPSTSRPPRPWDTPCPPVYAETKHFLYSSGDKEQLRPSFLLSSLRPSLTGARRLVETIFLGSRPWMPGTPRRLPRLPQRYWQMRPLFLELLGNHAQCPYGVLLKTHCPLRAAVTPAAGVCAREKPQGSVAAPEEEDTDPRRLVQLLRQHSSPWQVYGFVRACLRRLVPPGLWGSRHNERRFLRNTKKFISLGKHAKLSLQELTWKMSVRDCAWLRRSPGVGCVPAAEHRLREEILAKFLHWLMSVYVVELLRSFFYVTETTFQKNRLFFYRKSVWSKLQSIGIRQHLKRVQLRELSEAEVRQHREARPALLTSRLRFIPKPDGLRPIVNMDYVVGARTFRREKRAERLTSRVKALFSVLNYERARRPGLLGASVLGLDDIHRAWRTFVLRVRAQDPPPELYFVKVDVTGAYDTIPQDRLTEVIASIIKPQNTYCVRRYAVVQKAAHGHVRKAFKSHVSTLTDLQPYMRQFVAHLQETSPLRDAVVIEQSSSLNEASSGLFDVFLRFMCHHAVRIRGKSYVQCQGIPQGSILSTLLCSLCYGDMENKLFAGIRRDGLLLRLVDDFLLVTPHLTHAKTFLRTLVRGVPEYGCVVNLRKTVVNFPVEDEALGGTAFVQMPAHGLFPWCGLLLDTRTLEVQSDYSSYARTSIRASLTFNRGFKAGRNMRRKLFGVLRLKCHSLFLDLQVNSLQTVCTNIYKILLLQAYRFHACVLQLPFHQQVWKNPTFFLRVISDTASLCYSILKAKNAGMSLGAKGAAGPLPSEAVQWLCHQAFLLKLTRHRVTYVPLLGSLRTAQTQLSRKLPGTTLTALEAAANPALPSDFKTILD

COc1cc(/C=C\c2ncc([N+](=O)[O-])n2CCOC(=O)c2c[nH]c3ccccc23)cc(OC)c1OC
IC50 (MCF7 [1]): 30 nM | IC50 (HeLa [2]): 15 nM | IC50 (A549 [3]): 35 nM | IC50 (HepG2 [4]): 40 nM

Cc1ncc([N+](=O)[O-])n1CCOC(=O)Nc1ccc(OCc2cccc(I)c2)cc1
IC50 (Entamoeba histolytica [5]): 260 nM

COc1ccc(-c2cc(C(=O)OCCn3c([N+](=O)[O-])cnc3C)nn2-c2ccccc2)cc1
MIC (Escherichia coli [6]): 1.96 µg/mL (≈ 4.38 µM) | IC50 [7]: 920 nM | MIC (Bacillus spizizenii): 3.91 µg/mL (≈ 8.74 µM) | MIC (Pseudomonas aeruginosa [8]): 0.98 µg/mL (≈ 2.19 µM) | MIC (Staphylococcus aureus): 3.91 µg/mL (≈ 8.74 µM)

Cc1ncc([N+](=O)[O-])n1CCOC(=O)Nc1ccc(OS(=O)(=O)c2ccc(C(F)(F)F)cc2)cc1
IC50 (Entamoeba histolytica [5]): 240 nM

O=C(OCCn1c([N+](=O)[O-])cnc1/C=C/c1ccc2ccccc2c1)c1nccc2ccccc12
IC50 (A549 [9]): 110 nM | IC50 (HepG2 [10]): 100 nM | IC50 (U-251): 320 nM | IC50 [11]: 980 nM | IC50 (HeLa [12]): 50 nM

Cc1ccnc(NS(=O)(=O)c2ccc(/N=C\c3ccc(OCCn4c([N+](=O)[O-])cnc4C)cc3)cc2)n1
IC50 (B16-F10): 220 nM

Cc1ncc([N+](=O)[O-])n1CCn1cc(CN2C(=O)C(=C3OCCO3)c3cc(Br)ccc32)nn1
IC50 (Giardia intestinalis): 800 nM | IC50 (Entamoeba histolytica [13]): 1500 nM

Cc1ncc([N+](=O)[O-])n1Cc1cn(CCCCCN2C(=O)C(=O)c3cc(F)ccc32)nn1
IC50 (HEK293): > 100000 nM | IC50 (MCF7 [14]): 70700 nM | IC50 (MDA-MB-231): 56200 nM

Cc1ccc(C(C)C)cc1OC(=O)Cn1c([N+](=O)[O-])cnc1C
IC50 (Helicobacter pylori [15]): 35.17 uM/ml | IC50 (Helicobacter pylori [16]): 52.35 uM/ml | MIC (Clostridium perfringens): 0.0094 µM (≈ 0.00298 µg/mL)

Cc1ncc([N+](=O)[O-])n1CCOc1ccc(C(=O)Cc2ccc([N+](=O)[O-])cc2)c(O)c1O
MIC (Helicobacter pylori [17]): 0.88 µM (≈ 0.389 µg/mL) | MIC (Helicobacter pylori [18]): 1.76 µM (≈ 0.779 µg/mL) | MIC (Helicobacter pylori [19]): 1.76 µM (≈ 0.779 µg/mL) | MIC (Helicobacter pylori [20]): 1.76 µM (≈ 0.779 µg/mL) | MIC (Helicobacter pylori [21]): 1.76 µM (≈ 0.779 µg/mL) | MIC (Helicobacter pylori [22]): 1.76 µM (≈ 0.779 µg/mL)

CC1(C)S[C@@H]2[C@H](NC(=O)[C@H](N)c3ccc(O)cc3)C(=O)N2[C@H]1C(=O)O [AMOXICILLIN]
MIC (Helicobacter pylori [17]): 1.07 µM (≈ 0.391 µg/mL) | MIC (Helicobacter pylori [18]): 0.14 µM (≈ 0.0512 µg/mL) | MIC (Helicobacter pylori [19]): 1.07 µM (≈ 0.391 µg/mL) | MIC (Helicobacter pylori [20]): 1.07 µM (≈ 0.391 µg/mL) | MIC (Helicobacter pylori [21]): 1.07 µM (≈ 0.391 µg/mL) | MIC (Helicobacter pylori [22]): 0.14 µM (≈ 0.0512 µg/mL)

COc1cc2c(c(OC)c1OC)-c1ccc(OC)c(=O)cc1[C@@H](NC(C)=O)CC2 [COLCHICINE]
IC50 (MCF7 [1]): 38 nM | IC50 (HeLa [2]): 55 nM | IC50 (A549 [3]): 37 nM | IC50 (HepG2 [4]): 45 nM

OC(Cn1cncn1)(Cn1cncn1)c1ccc(F)cc1F [FLUCONAZOLE]
MIC (Candida parapsilosis): 156 µM (≈ 47.8 µg/mL) | MIC (Candida albicans): 156 µM (≈ 47.8 µg/mL)

CCn1cc(C(=O)O)c(=O)c2cc(F)c(N3CCNCC3)cc21 [NORFLOXACIN]
MIC (Escherichia coli [23]): 1600 µM (≈ 513 µg/mL) | MIC (Enterococcus faecalis): 803 µM (≈ 256 µg/mL) | MIC (Acinetobacter baumannii): 803 µM (≈ 256 µg/mL) | MIC (Pseudomonas aeruginosa [24]): 1600 µM (≈ 513 µg/mL)
